Data from patent publication US12281121B2, “N-containing heteroaryl derivative and pharmaceutical composition comprising same as active ingredient for prevention or treatment of cancer” (VORONOI Inc., priority 2019, dated 2025).

Legend:
[1] = system: Ba/F3 (naive) cells; assay: Cell proliferation inhibition, CellTiter-Glo; assay type: cell-based; settings: Mus musculus, BaF3; Ba/F3 not transduced, 72 hours
Method in brief: (§1)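 Ba/F3 lines (naive or RET-fusion-transduced, IL-3 medium) and LC-2/ad cells exposed 72 h to compound, 12 three-fold dilutions spanning 0.3 nM–50 μM final. Viability read by CellTiter-Glo luminescence, in triplicate; GI50 derived from growth ratio (%) versus control.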

[2] = system: Ba/F3 CCDC6-RET (WT) cells; assay: Cell proliferation inhibition, CellTiter-Glo; assay type: cell-based; settings: BaF3/CCDC6-RET, 72 hours
Method in brief: as §1

[3] = system: Ba/F3 KIF5B-RET (V804M) cells; assay: Cell proliferation inhibition, CellTiter-Glo; assay type: cell-based; settings: Mus musculus, BaF3, 72 hours
Method in brief: as §1

[4] = system: Ba/F3 KIF5B-RET (WT) cells; assay: Cell proliferation inhibition, CellTiter-Glo; assay type: cell-based; settings: Mus musculus, BaF3, 72 hours
Method in brief: as §1

[5] = system: LC-2/ad cells (with CCDC6-RET gene); assay: Cell proliferation inhibition, CellTiter-Glo; assay type: cell-based; settings: Homo sapiens; LC-2/ad lung cancer cell line, 72 hours
Method in brief: as §1

[6] = system: TT cells; assay: Cell proliferation inhibition, CellTiter-Glo; assay type: cell-based; settings: Homo sapiens; TT thyroid cancer cell line, 72 hours
[7] = target: T1, ABL1(M351T)-phosphorylated (Homo sapiens, UniProt P00519, M351T); assay: ScanMAX Kinase analysis panel (DiscoverX); assay type: binding; settings: read-out: adjusted percentage (% control)
T1 construct: purchased DiscoverX
Protocol: (§2) The following experiment was performed in order to evaluate the inhibitory activity of the compound according to the present invention against more enzymes. Specifically, for Examples 1 and 3 selected among the Example compounds of the present invention, the enzyme (kinase) selectivity was set to be measured by commissioning DiscoverX, and an experiment was conducted using a ScanMAX™ Kinase analysis panel. In this case, the concentration of the drug treated with the enzyme was set to 1 μM in DMSO, the adjusted percentage (% control) was determined in the same manner as in the following Equation 1, and the results are shown in the following Table 3. (Example compound−Positive control)/(Negative control−Positive control)×100 [Equation 1]
(§3) In addition, the enzyme selectivity of the present invention was determined to be active against the corresponding enzyme when the adjusted percentage was <35% (that is, less than 35%).

[8] = target: T2, ABL1(T315I)-nonphosphorylated (Homo sapiens, UniProt P00519, T315I); assay: ScanMAX Kinase analysis panel (DiscoverX); assay type: binding; settings: read-out: adjusted percentage (% control)
T2 construct: purchased DiscoverX
Protocol: as §2, §3

[9] = target: T3, ABL1(T315I)-phosphorylated (Homo sapiens, UniProt P00519, T315I); assay: ScanMAX Kinase analysis panel (DiscoverX); assay type: binding; settings: read-out: adjusted percentage (% control)
T3 construct: purchased DiscoverX
Protocol: as §2, §3

[10] = target: T4, AMPK-alpha1 (Homo sapiens, UniProt Q13131); assay: ScanMAX Kinase analysis panel (DiscoverX); assay type: binding; settings: read-out: adjusted percentage (% control)
T4 construct: purchased DiscoverX
Protocol: as §2, §3

[11] = target: T5, BLK (Homo sapiens, UniProt P51451); assay: ScanMAX Kinase analysis panel (DiscoverX); assay type: binding; settings: read-out: adjusted percentage (% control)
T5 construct: purchased DiscoverX
Protocol: as §2, §3

[12] = target: T6, DAPK3 (Homo sapiens, UniProt O43293); assay: ScanMAX Kinase analysis panel (DiscoverX); assay type: binding; settings: read-out: adjusted percentage (% control)
T6 construct: purchased DiscoverX
Protocol: as §2, §3

[13] = target: T7, DDR1 (Homo sapiens, UniProt Q08345); assay: ScanMAX Kinase analysis panel (DiscoverX); assay type: binding; settings: read-out: adjusted percentage (% control)
T7 construct: purchased DiscoverX
Protocol: as §2, §3

[14] = target: T8, FLT3 (Homo sapiens, UniProt P36888); assay: ScanMAX Kinase analysis panel (DiscoverX); assay type: binding; settings: read-out: adjusted percentage (% control)
T8 construct: purchased DiscoverX ScanMAX Kinase analysis panel
Protocol: as §2, §3

[15] = target: T9, FLT3(D835Y) (Homo sapiens, UniProt P36888, D835Y); assay: ScanMAX Kinase analysis panel (DiscoverX); assay type: binding; settings: read-out: adjusted percentage (% control)
T9 construct: purchased DiscoverX ScanMAX Kinase analysis panel
Protocol: as §2, §3

[16] = target: T10, ITK (Homo sapiens, UniProt Q08881); assay: ScanMAX Kinase analysis panel (DiscoverX); assay type: binding; settings: read-out: adjusted percentage (% control)
T10 construct: purchased DiscoverX ScanMAX Kinase analysis panel
Protocol: as §2, §3

[17] = target: T11, JAK1(JH1domain-catalytic) (Homo sapiens, UniProt P23458); assay: ScanMAX Kinase analysis panel (DiscoverX); assay type: binding; settings: read-out: adjusted percentage (% control)
T11 construct: JAK1(JH1domain-catalytic); purchased DiscoverX ScanMAX Kinase analysis panel
Protocol: as §2, §3

[18] = target: T12, JAK3(JH1domain-catalytic) (Homo sapiens, UniProt P52333); assay: ScanMAX Kinase analysis panel (DiscoverX); assay type: binding; settings: read-out: adjusted percentage (% control)
T12 construct: JAK3 (JH1domain-catalytic); purchased DiscoverX ScanMAX Kinase analysis panel
Protocol: as §2, §3

[19] = target: T13, MEK5 (Homo sapiens, UniProt Q13163); assay: ScanMAX Kinase analysis panel (DiscoverX); assay type: binding; settings: read-out: adjusted percentage (% control)
T13 construct: purchased DiscoverX ScanMAX Kinase analysis panel
Protocol: as §2, §3

[20] = target: T14, PDGFRB (Homo sapiens, UniProt P09619); assay: ScanMAX Kinase analysis panel (DiscoverX); assay type: binding; settings: read-out: adjusted percentage (% control)
T14 construct: purchased DiscoverX ScanMAX Kinase analysis panel
Protocol: as §2, §3

[21] = target: T15, RET(V804M) (Homo sapiens, UniProt P07949, V804M); assay: ScanMAX Kinase analysis panel (DiscoverX); assay type: binding; settings: read-out: adjusted percentage (% control)
T15 construct: purchased DiscoverX ScanMAX Kinase analysis panel
Protocol: as §2, §3

[22] = target: T16, RIOK3 (Homo sapiens, UniProt O14730); assay: ScanMAX Kinase analysis panel (DiscoverX); assay type: binding; settings: read-out: adjusted percentage (% control)
T16 construct: purchased DiscoverX ScanMAX Kinase analysis panel
Protocol: as §2, §3

[23] = target: T17, SNARK (Homo sapiens, UniProt Q9H093); assay: ScanMAX Kinase analysis panel (DiscoverX); assay type: binding; settings: read-out: adjusted percentage (% control)
T17 construct: purchased DiscoverX ScanMAX Kinase analysis panel
Protocol: as §2, §3

[24] = target: T18, TRKC (Homo sapiens, UniProt Q16288); assay: ScanMAX Kinase analysis panel (DiscoverX); assay type: binding; settings: read-out: adjusted percentage (% control)
T18 construct: purchased DiscoverX ScanMAX Kinase analysis panel
Protocol: as §2, §3

[25] = target: T19, YSK4 (Homo sapiens, UniProt Q56UN5); assay: ScanMAX Kinase analysis panel (DiscoverX); assay type: binding; settings: read-out: adjusted percentage (% control)
T19 construct: purchased DiscoverX ScanMAX Kinase analysis panel
Protocol: as §2, §3

T15 sequence (P07949 29-1114 V804M): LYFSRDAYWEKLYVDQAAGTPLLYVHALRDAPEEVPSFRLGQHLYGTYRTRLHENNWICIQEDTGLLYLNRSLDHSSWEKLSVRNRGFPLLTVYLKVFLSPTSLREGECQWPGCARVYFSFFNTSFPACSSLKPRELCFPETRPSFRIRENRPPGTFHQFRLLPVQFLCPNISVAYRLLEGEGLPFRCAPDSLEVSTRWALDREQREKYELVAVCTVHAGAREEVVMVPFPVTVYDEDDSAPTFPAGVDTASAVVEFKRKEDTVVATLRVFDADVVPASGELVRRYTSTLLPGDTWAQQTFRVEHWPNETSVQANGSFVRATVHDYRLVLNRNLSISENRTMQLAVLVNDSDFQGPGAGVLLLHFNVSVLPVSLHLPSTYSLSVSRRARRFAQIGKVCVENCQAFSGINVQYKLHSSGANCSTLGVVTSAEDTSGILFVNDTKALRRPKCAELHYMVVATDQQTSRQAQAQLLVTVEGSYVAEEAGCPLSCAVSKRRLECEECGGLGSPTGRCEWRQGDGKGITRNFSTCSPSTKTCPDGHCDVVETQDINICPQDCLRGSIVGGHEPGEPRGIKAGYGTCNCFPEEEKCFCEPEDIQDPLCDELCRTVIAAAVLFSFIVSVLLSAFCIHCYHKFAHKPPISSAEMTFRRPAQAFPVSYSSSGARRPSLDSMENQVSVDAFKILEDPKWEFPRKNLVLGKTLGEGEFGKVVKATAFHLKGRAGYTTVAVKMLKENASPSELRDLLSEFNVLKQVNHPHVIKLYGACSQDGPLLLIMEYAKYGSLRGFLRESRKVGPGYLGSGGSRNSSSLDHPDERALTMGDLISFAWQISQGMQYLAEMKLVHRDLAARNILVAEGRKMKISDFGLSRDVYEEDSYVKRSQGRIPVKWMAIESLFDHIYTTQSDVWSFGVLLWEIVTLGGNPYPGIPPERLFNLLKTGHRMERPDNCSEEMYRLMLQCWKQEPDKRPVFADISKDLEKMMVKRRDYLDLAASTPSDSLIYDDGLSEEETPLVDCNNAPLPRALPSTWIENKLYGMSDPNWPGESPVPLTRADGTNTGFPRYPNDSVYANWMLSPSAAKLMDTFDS
T7 sequence (Q08345 19-913): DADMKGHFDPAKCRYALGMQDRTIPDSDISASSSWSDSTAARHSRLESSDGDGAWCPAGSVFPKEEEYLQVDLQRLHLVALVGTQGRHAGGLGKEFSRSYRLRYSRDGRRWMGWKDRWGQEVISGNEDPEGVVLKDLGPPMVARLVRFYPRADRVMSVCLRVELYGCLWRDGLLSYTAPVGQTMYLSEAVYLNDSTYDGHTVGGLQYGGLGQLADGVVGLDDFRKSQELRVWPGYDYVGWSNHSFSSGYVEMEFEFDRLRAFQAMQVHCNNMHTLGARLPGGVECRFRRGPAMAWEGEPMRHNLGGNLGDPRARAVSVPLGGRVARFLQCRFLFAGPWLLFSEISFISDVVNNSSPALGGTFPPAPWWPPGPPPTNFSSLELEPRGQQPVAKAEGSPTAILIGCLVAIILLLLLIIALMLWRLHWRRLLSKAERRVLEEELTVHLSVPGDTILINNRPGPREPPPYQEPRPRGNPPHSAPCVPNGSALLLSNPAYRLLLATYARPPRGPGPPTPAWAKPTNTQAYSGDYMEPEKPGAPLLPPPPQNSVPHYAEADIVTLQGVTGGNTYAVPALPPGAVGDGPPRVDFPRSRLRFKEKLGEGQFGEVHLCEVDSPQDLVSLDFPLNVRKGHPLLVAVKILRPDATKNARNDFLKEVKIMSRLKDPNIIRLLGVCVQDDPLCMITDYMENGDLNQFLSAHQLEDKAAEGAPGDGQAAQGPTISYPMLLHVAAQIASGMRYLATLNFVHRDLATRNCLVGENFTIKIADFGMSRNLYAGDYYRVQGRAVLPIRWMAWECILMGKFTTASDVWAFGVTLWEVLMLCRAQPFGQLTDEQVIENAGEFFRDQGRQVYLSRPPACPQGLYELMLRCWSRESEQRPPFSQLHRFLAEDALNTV
T12 sequence (P52333 822-1111 limits assumed): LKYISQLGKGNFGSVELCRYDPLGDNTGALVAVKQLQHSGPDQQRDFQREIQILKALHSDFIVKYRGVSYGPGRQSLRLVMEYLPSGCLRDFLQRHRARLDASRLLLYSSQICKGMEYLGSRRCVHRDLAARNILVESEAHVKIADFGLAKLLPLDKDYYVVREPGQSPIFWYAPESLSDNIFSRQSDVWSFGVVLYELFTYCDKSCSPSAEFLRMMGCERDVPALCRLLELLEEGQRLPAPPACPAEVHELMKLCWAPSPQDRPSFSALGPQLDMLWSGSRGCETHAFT
T17 sequence (Q9H093 whole entry): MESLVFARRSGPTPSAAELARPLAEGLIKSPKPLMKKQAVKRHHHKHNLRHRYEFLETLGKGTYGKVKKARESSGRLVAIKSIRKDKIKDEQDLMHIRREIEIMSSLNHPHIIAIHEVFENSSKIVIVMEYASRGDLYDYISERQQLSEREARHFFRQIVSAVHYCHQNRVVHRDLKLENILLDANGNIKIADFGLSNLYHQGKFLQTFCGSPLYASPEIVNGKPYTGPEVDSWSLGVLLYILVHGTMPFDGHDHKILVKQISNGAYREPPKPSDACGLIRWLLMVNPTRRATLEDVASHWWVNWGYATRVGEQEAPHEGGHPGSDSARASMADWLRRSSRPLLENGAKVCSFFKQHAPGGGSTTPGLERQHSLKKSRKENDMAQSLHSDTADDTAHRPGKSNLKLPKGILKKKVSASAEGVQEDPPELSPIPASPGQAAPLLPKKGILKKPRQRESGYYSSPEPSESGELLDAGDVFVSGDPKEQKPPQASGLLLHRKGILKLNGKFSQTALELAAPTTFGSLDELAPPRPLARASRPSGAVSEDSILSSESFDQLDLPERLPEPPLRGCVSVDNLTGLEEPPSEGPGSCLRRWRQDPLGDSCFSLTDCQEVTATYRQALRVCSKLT
T19 sequence (Q56UN5 whole entry): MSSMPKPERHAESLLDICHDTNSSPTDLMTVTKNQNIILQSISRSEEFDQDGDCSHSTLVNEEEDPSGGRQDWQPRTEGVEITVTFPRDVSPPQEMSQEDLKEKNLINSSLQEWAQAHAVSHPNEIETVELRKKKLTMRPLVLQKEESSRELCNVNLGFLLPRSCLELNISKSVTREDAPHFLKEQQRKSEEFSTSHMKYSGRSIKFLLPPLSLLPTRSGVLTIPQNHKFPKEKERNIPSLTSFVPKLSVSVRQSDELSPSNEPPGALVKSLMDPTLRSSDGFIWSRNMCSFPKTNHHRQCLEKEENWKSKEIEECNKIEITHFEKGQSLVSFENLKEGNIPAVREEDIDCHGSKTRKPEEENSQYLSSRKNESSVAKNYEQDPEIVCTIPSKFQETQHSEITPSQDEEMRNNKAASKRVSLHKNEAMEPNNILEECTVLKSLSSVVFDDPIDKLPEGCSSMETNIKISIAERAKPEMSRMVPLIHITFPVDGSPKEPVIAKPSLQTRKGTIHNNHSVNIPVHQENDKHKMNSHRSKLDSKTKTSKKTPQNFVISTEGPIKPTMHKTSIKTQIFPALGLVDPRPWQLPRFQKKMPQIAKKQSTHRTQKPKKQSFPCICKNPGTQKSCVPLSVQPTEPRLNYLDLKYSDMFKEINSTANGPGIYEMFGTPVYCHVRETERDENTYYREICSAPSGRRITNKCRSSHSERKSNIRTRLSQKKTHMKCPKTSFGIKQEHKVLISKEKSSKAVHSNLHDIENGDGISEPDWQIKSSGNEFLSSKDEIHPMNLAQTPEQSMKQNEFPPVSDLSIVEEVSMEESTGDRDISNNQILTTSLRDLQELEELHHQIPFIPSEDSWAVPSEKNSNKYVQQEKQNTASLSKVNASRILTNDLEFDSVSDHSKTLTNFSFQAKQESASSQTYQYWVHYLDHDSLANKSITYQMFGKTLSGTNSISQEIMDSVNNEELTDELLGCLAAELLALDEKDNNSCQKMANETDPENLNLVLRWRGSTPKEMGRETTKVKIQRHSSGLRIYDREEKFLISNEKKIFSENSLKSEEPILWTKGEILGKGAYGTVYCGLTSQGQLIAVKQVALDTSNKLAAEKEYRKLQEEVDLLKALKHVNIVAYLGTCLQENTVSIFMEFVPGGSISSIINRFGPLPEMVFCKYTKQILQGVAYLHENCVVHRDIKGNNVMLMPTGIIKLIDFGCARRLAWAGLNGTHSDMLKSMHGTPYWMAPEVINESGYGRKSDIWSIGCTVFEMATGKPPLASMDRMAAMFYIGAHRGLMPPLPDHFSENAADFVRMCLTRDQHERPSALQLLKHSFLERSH
T6 sequence (O43293 whole entry): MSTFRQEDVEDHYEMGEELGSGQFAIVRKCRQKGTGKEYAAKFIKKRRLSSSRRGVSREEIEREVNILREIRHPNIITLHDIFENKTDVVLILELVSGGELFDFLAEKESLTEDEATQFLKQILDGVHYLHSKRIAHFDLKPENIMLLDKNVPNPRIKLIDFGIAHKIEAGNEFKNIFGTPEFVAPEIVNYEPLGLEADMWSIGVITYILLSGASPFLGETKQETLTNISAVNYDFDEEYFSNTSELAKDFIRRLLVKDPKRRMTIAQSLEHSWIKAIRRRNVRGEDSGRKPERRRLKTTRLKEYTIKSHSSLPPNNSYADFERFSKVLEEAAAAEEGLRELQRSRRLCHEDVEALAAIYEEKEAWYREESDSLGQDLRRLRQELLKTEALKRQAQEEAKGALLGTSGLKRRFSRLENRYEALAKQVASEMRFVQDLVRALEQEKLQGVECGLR
T11 sequence (P23458 875-1153 limits assumed): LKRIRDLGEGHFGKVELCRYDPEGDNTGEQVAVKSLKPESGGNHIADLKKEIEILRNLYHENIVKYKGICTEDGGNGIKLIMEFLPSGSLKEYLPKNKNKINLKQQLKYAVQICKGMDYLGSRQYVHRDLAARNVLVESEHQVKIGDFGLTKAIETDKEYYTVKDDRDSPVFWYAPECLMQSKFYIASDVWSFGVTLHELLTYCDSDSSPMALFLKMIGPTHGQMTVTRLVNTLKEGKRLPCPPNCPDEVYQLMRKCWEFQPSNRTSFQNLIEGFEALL

| Compound | GI50 [1] | GI50 [2] | GI50 [3] | GI50 [4] | GI50 [5] | GI50 [6] | remaining binding at 1 µM [7] | remaining binding at 1 µM [8] | remaining binding at 1 µM [9] | remaining binding at 1 µM [10] | remaining binding at 1 µM [11] | remaining binding at 1 µM [12] | remaining binding at 1 µM [13] | remaining binding at 1 µM [14] | remaining binding at 1 µM [15] | remaining binding at 1 µM [16] | remaining binding at 1 µM [17] | remaining binding at 1 µM [18] | remaining binding at 1 µM [19] | remaining binding at 1 µM [20] | also measured |
| --- | --- | --- | --- | --- | --- | --- | --- | --- | --- | --- | --- | --- | --- | --- | --- | --- | --- | --- | --- | --- | --- |
| COc1ccc(CN2C3CC2CN(c2ccc(-c4nc(Nc5cc(C)[nH]n5)c5occc5n4)cn2)C3)cn1 [Example 1, 2-(6-(6-((6-methoxypyridin-3-yl)methyl)-3,6-diazabicyclo[3.1.1]heptan-3-yl)pyridin-3-yl)-N-(5-methyl-1H-pyrazol-3-yl)furo[3,2-d]pyrimidin-4-amine] | 4900 nM | 59 nM | 19 nM | 19 nM | 14 nM | 88 nM | 16% | 20% | 19% | 26% | 1.4% | 19% | 25% | 1.2% | 1.5% | 2% | 15% | 0.55% | 9.9% | 15% | remaining binding at 1 µM [21]: 0%; remaining binding at 1 µM [22]: 13%; remaining binding at 1 µM [23]: 22%; remaining binding at 1 µM [24]: 0.45%; remaining binding at 1 µM [25]: 6.2% |
| COc1ccc(CN2C3CC2CN(c2ccc(-c4nc(Nc5cc(C)[nH]n5)c5ccccc5n4)cn2)C3)cn1 [Example 3, 2-(6-(6-((6-methoxypyridin-3-yl)methyl)-3,6-diazabicyclo [3.1.1]heptan-3-yl)pyridin-3-yl)-N-(5-methyl-1H-pyrazol-3-yl)quinazolin-4-amine] | 2300 nM | 51 nM | 3 nM | 13 nM | 60 nM | 30 nM | 15% | 2.9% | 3.2% | 33% | 0.05% | 34% | 12% | 0.55% | 0.55% | 1.6% | 9.7% | 1.9% | 2.2% | 2.7% | remaining binding at 1 µM [21]: 0%; remaining binding at 1 µM [22]: 30%; remaining binding at 1 µM [23]: 17%; remaining binding at 1 µM [24]: 1%; remaining binding at 1 µM [25]: 5% |
